Experimental data as given in PubChem BioAssay AID328 (DTP/NCI, 2004).
Values joined by “and” are separate entries in the source; they are usually repeats but may differ in a detail not shown here. Identical values can stand only once. Inconclusive results and toxic doses are left out.

Tested on: BDF1 mice, P388 leukemia ip, median survival T/C
Experiment: NCI In Vivo Anticancer Drug Screen. Data for tumor model P388 Leukemia (intraperitoneal) in B6D2F1 (BDF1) mice
Conditions: endpoint: median survival time, higher = longer survival
Outline: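 Survival ratio, drug arm over vehicle arm, in mice with a transplanted tumour.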

[1] = dose: 25.0 mg/kg/injection, schedule: Q04DX003 (ip), vehicle: Klucel (hydroxypropylcellulose) (HPC)
[2] = dose: 50.0 mg/kg/injection, schedule: Q04DX003 (ip), vehicle: Klucel (hydroxypropylcellulose) (HPC)
[3] = dose: 100.0 mg/kg/injection, schedule: Q04DX003 (ip), vehicle: Klucel (hydroxypropylcellulose) (HPC)
[4] = dose: 100.0 mg/kg/injection, schedule: Q01DX009 (ip), vehicle: Klucel (hydroxypropylcellulose) (HPC)
[5] = dose: 200.0 mg/kg/injection, schedule: Q04DX003 (ip), vehicle: Klucel (hydroxypropylcellulose) (HPC)
[6] = dose: 400.0 mg/kg/injection, schedule: Q04DX003 (ip), vehicle: Klucel (hydroxypropylcellulose) (HPC)
[7] = dose: 25.0 mg/kg/injection, schedule: Q01DX009 (ip), vehicle: Klucel (hydroxypropylcellulose) (HPC)
[8] = dose: 50.0 mg/kg/injection, schedule: Q01DX009 (ip), vehicle: Klucel (hydroxypropylcellulose) (HPC)

Cc1ccc(C)c(CN(C)C)c1O
T/C [1]: 118 % of control | T/C [2]: 100 % of control | T/C [3]: 100 % of control

CCCCCCCCCCCCCCCC(=O)OCc1cc(=O)c(O)co1
T/C [4]: 118 % of control | T/C [3]: 104 % of control | T/C (dose: 200.0 mg/kg/injection, schedule: Q01DX009 (ip), vehicle: Klucel (hydroxypropylcellulose) (HPC)): 109 % of control | T/C [5]: 104 % of control | T/C (dose: 400.0 mg/kg/injection, schedule: Q01DX009 (ip), vehicle: Klucel (hydroxypropylcellulose) (HPC)): 95 % of control | T/C [6]: 113 % of control

C=CCN(CC=C)/N=N/c1nc[nH]c1C(N)=O
T/C (dose: 50.0 mg/kg/injection, schedule: Q04DX003 (ip), vehicle: saline with Tween-80): 100 % of control | T/C (dose: 100.0 mg/kg/injection, schedule: Q04DX003 (ip), vehicle: saline with Tween-80): 95 % of control | T/C (dose: 200.0 mg/kg/injection, schedule: Q04DX003 (ip), vehicle: saline with Tween-80): 113 % of control

CC1(C)OS2(OC(C)(C)c3ccccc32)c2ccccc21
T/C (dose: 50.0 mg/kg/injection, schedule: Q01DX009 (ip), vehicle: other): 101 % of control | T/C (dose: 100.0 mg/kg/injection, schedule: Q01DX009 (ip), vehicle: other): 107 % of control | T/C (dose: 200.0 mg/kg/injection, schedule: Q01DX009 (ip), vehicle: other): 117 % of control

CNC(=O)c1nc(C)c(C)[nH]c1=O
T/C (dose: 25.0 mg/kg/injection, schedule: Q01DX009 (ip), vehicle: water): 97 % of control | T/C (dose: 50.0 mg/kg/injection, schedule: Q01DX009 (ip), vehicle: water): 90 % of control | T/C (dose: 50.0 mg/kg/injection, schedule: Q04DX003 (ip), vehicle: water): 103 % of control | T/C (dose: 100.0 mg/kg/injection, schedule: Q01DX009 (ip), vehicle: water): 99 % of control | T/C (dose: 200.0 mg/kg/injection, schedule: Q01DX009 (ip), vehicle: water): 90 % of control | T/C (dose: 400.0 mg/kg/injection, schedule: Q04DX003 (ip), vehicle: water): 100 % of control

Cc1ccc(C(SCC(N)C(=O)O)(c2ccc(C)cc2)c2ccc(C)cc2)cc1 (stereo not drawn)
T/C (dose: 65.0 mg/kg/injection, schedule: Q04DX003 (ip), vehicle: Klucel (hydroxypropylcellulose) (HPC)): 159 % of control | T/C [3]: 175 % of control | T/C [5]: 185 % of control | T/C (dose: 264.0 mg/kg/injection, schedule: Q04DX003 (ip), vehicle: Klucel (hydroxypropylcellulose) (HPC)): 230 % of control and 150 % of control | T/C [6]: 177 % of control and 190 % of control (2×)

C1OCC2[CH2][Hg][S][Hg][CH2]C1O2
T/C (dose: 1.25 mg/kg/injection, schedule: Q01DX010 (ip), vehicle: saline): 109 % of control | T/C (dose: 2.5 mg/kg/injection, schedule: Q01DX010 (ip), vehicle: saline): 104 % of control | T/C (dose: 5.0 mg/kg/injection, schedule: Q01DX010 (ip), vehicle: saline): 109 % of control | T/C (dose: 10.0 mg/kg/injection, schedule: Q01DX010 (ip), vehicle: saline): 122 % of control

CC(=O)Nc1cc(NC(C)=O)cc([N+](=O)[O-])c1
T/C (dose: 25.0 mg/kg/injection, schedule: Q04DX003 (ip), vehicle: saline): 110 % of control | T/C (dose: 50.0 mg/kg/injection, schedule: Q04DX003 (ip), vehicle: saline): 106 % of control | T/C (dose: 100.0 mg/kg/injection, schedule: Q04DX003 (ip), vehicle: saline): 100 % of control | T/C (dose: 200.0 mg/kg/injection, schedule: Q04DX003 (ip), vehicle: saline): 107 % of control | T/C (dose: 400.0 mg/kg/injection, schedule: Q04DX003 (ip), vehicle: saline): 103 % of control

CCn1cnc2c(C(F)(F)F)nc(N)nc21
T/C (dose: 12.5 mg/kg/injection, schedule: Q01DX009 (ip), vehicle: Klucel (hydroxypropylcellulose) (HPC)): 100 % of control | T/C [7]: 110 % of control | T/C [8]: 110 % of control

N#Cc1ccc(S(N)(=O)=O)cc1
T/C (dose: 12.5 mg/kg/injection, schedule: Q04DX003 (ip), vehicle: Klucel (hydroxypropylcellulose) (HPC)): 109 % of control | T/C [7]: 111 % of control | T/C [1]: 109 % of control | T/C [8]: 111 % of control | T/C (dose: 50.0 mg/kg/injection, schedule: Q01DX009 (ip), vehicle: saline with Tween-80): 100 % of control | T/C [2]: 104 % of control | T/C [4]: 111 % of control

C=CC[n+]1ccccc1C(c1ccccc1)c1ccccc1
T/C (dose: 6.25 mg/kg/injection, schedule: Q01DX009 (ip), vehicle: saline with Tween-80): 116 % of control | T/C (dose: 12.5 mg/kg/injection, schedule: Q01DX009 (ip), vehicle: saline with Tween-80): 120 % of control | T/C (dose: 12.5 mg/kg/injection, schedule: Q04DX003 (ip), vehicle: saline with Tween-80): 91 % of control
